Assay results from patent publication US20250100996A1, “HETEROCYCLOALKYL AND HETEROARYL COMPOUNDS AND PHARMACEUTICAL COMPOSITIONS THAT MODULATE IKZF2” (Plexium, Inc., priority 2021, published 2025).

How the values were obtained:
IKZF3 (Aiolos) = biological target: T1, IKZF3 (Aiolos) (Homo sapiens, UniProt Q9UKT9); assay: IKZF3 reporter degradation assay (HEK 293T IKZF3-mNeonGreen reporter cell line); assay type: cell-based; settings: HEK 293T IKZF3-mNeonGreen reporter, 24 hours incubation
T1 construct: Leu-Asp junction (codons ctcgac before the linker); mScarlet (behind P2A) (C, cleaved yes); expressed in transfected cells
T1 sequence (Q96SW2 whole entry partner): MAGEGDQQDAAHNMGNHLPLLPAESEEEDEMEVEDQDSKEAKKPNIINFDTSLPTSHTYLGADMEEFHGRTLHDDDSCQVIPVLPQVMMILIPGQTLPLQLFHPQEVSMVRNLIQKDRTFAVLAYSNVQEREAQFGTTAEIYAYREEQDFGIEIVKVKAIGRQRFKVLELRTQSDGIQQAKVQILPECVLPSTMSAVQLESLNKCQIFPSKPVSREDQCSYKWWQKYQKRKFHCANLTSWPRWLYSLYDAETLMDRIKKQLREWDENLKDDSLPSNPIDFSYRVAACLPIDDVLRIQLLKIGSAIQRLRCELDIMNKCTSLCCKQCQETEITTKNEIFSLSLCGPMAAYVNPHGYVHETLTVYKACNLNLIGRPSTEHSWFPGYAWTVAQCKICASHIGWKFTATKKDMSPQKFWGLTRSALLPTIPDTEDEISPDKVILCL
T1 sequence (Q16531 whole entry partner): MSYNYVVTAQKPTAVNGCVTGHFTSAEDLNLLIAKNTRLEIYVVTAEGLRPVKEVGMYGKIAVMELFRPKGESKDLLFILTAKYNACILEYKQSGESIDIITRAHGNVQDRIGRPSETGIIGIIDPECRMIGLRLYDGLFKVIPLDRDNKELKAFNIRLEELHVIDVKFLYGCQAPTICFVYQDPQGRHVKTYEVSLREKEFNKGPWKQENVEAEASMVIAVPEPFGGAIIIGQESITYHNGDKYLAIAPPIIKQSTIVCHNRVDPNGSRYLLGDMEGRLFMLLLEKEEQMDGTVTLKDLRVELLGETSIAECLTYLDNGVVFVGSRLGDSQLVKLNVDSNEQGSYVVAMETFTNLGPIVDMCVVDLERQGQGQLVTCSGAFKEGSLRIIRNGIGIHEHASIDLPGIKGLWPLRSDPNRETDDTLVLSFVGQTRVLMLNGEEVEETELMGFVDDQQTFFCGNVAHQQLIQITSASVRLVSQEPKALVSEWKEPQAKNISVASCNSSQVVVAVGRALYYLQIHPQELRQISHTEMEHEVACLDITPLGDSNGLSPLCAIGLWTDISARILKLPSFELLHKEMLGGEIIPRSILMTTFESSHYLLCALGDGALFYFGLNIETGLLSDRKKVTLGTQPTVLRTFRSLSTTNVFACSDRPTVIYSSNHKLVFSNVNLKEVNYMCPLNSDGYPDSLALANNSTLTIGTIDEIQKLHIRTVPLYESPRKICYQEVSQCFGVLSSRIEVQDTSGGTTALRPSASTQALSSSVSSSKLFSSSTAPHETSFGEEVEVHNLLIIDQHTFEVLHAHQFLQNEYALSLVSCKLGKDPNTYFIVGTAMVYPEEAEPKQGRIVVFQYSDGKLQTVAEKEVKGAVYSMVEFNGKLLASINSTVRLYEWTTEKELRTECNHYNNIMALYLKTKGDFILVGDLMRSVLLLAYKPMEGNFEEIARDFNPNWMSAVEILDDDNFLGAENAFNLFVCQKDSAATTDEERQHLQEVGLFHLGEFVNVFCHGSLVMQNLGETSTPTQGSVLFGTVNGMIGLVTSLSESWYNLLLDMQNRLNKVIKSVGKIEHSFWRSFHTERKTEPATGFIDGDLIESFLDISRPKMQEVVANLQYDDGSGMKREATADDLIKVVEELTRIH
T1 sequence (Q9UKT9 whole entry): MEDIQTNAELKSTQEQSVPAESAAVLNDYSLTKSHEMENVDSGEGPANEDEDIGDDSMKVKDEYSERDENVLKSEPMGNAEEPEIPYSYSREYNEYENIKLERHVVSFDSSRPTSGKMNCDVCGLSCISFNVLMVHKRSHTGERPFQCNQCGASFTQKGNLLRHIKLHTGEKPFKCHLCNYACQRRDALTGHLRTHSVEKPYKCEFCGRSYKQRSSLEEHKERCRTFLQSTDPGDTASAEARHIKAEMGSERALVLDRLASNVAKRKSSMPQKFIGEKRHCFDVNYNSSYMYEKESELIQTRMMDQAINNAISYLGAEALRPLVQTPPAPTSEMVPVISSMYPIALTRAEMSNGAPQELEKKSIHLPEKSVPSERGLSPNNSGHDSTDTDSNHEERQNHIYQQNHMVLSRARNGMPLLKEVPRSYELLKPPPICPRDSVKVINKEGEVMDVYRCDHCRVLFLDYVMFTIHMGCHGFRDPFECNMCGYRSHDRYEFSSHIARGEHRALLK
Source text: (§1) Polycistronic plasmids were constructed for the mammalian expression of fluorescent reporter fusions of human transcription factors IKZF1 (Ikaros), IKZF2 (Helios), and IKZF3 (Aiolos). The respective protein sequences had their C-terminal end joined to a GGGGS linker repeated three times followed by mNeonGreen, P2A sequence, and mScarlet. The DNA sequences of the open reading frames are as follows:
(§2) IKZF1, IKZF2, and IKZF3 constructs were cloned into the UCOE Hygromycin expression vectors (Millipore Sigma). Reporter constructs were transfected using cationic lipid reagents into adherent HEK 293T cells and stable integrants were selected by treatment with 200 μg/mL hygromycin B. Clonal populations were obtained from the population of stable integrants either by limiting dilution or fluorescence activated cell sorting.
(§3) The clonal stable cell lines were maintained under constant 200 μg/mL hygromycin B selection while being passaged for use in the degradation assays. […] The fluorescence intensity of the IKZF1/2/3-mNeonGreen (FITC channel) and mScarlet (PE channel) reporters were routinely analyzed by flow cytometry to confirm consistent expression levels between experiments.
(§4) The IKZF1/IKZF2/IKZF3 degradation assays were carried out by harvesting the HEK 293T reporter cell lines and resuspending the cells in media formulated for reduced background fluorescence (FluoroBrite; Thermo Fisher). The respective cell lines were seeded at a density of 4000 cells/well into black-walled 384-well optical grade assay tissue culture plates. The cells were incubated overnight at 37° C. to allow for attachment to the assay plate. Dilutions of the compounds were prepared in DMSO from 10 mM compound stocks. The assay plates were treated with appropriate concentrations of the compounds by dispensing the DMSO dilutions in quadruplicate wells with an upper limit of 0.5% final DMSO.
(§5) After 24 hours incubation with the compounds, the assay plates were imaged on an ImageXpress Pico microscopy system (cells maintained at 37° C. during imaging) to obtain the fluorescent readouts. The assay plates were imaged in the FITC and Tetramethylrhodamine (TRITC) channels to obtain the mNeonGreen fluorescence intensity (reporter degradation data) and mScarlet fluorescence intensity (for cell segmentation). 293T-IKZF1 and 293T-IKZF3 reporter cell lines were imaged with exposures of 500 milliseconds (ms) for both FITC and TRITC channels, while the 293T-IKZF2 reporter cell line was imaged with exposures of 1000 ms for FITC and 1250 ms for TRITC. The resulting data was analyzed with Cell Reporter Xpress software using the 2-channel cell scoring analysis with a “percent positive” readout. The TRITC channel was selected for the “nuclei” segmentation with a threshold of 20 while the FITC channel was selected for the “Marker 1” segmentation and a threshold of 100 for the IKZF1 and IKZF3 reporter lines. […] The minimum segmentation width was set to 6 micrometers and the maximum segmentation width was set to 15 micrometers for all cell lines. The DC50 calculations were determined by regression to best fit four-parameter logistic curves using GraphPad Prism.

IKZF2 (Helios) [1] = biological target: T2, IKZF2 (Helios) (Homo sapiens, UniProt Q9UKS7); assay: IKZF2 reporter degradation assay (HEK 293T IKZF2-mNeonGreen reporter cell line); assay type: cell-based; settings: HEK 293T IKZF2-mNeonGreen reporter, 24 hours incubation
T2 construct: Leu-Asp junction (codons ctcgac before the linker); mScarlet (behind P2A) (C, cleaved yes); expressed in transfected cells
T2 sequence (Q9UKS7 whole entry): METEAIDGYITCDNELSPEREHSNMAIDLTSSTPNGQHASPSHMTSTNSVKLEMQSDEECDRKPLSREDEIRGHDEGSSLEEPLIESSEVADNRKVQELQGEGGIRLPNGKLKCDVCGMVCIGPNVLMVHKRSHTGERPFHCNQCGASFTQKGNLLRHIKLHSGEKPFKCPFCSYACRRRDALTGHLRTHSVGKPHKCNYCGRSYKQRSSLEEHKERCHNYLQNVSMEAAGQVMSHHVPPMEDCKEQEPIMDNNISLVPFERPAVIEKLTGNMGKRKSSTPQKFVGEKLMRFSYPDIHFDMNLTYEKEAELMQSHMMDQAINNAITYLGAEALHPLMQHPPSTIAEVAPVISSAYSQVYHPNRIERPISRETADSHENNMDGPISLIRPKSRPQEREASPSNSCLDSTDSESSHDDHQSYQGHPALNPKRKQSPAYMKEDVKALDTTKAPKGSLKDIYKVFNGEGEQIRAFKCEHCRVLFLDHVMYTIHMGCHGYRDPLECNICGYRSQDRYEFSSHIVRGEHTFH
T2 sequence (Q96SW2 whole entry, further chain): as the sequence (Q96SW2 whole entry partner) above
T2 sequence (Q16531 whole entry partner): as the sequence (Q16531 whole entry partner) above
Source text: as §1, §2, §3, §4, §5

[2] = biological target: T3, human E3 ligase component cereblon (CRBN) (Homo sapiens, UniProt Q96SW2); assay: Cereblon (CRBN) target engagement, NanoBRET TE Intracellular E3 Ligase Assay in transfected HEK-293T cells; settings: read-out: CRBN Binding EC50
T3 construct: host or cells: HEK293T
T3 sequence (Q96SW2 whole entry): as the sequence (Q96SW2 whole entry partner) above
T3 sequence (Q16531 whole entry partner): as the sequence (Q16531 whole entry partner) above
Experimental: HEK293T cells were harvested ca. 75% confluent with trypsin and plated (500,000 cells/well) in a 6-well tissue culture plate in 2 mL of Dulbecco's Modified Eagle Medium (DMEM)^+10% Fetal Bovine Serum (FBS) and incubated overnight at 37° C.
The NanoLuc-CRBN fusion vector (Nluc-CRBN; Promega) contains the coding region of human E3 ligase component cereblon (CRBN) fused to the C-terminus of the NanoLuc luciferase coding region. A mixture of 10 ng Nluc-CRBN and 990 ng DDB1 Expression Vector (Promega) was added to 125 μL Opti-Minimum Essential Medium (Opti-MEM™; Thermo Fisher) along with […] P3000 reagent (Thermo Fisher) in a 1.5 mL epppendorf tube. This solution was added to Lipofectamine 3000 transfection reagent (5 μL; Thermo Fisher) in Opti-MEM (125 μL), mixed well, and incubated for 15 minutes at room temperature. The transfection mixture was added dropwise to cells and incubated overnight at 37° C., 5% CO2. Following transfection, cells were washed once with PBS, and trypsin (250 μL) was added and incubated 30-45 see to dislodge cells. Complete media (2 mL) was added to resuspend cells to form a single cell suspension. Cells were centrifuged at 320×g for 5 min at room temperature, the supernatant was removed, and the cell pellet resuspended in Opti-MEM (3 mL; wash step repeated ×2). After final resuspension in 5 mL Opti-MEM, cells were counted and resuspended at 200,000 cells/mL in Opti-MEM.
Cereblon target engagement was monitored by Bioluminescence Resonance Energy Transfer (BRET) in transfected HEK-293T cells using the NanoBRET TE Intracellular E3 Ligase Assay (Promega). Briefly, 384-well plates (white opaque plates, Corning 3574, low binding surface) were seeded with transfected HEK-293T cells (38 μL/well). 2 μL of 10 μM CRBN tracer (diluted 1:5 in Tracer Dilution Buffer) was added to each well. Plates were centrifuged at 320×g for 1 min at room temperature. Test compounds were added in a 11-point dilution series (typically 10 μM to 100 pM) using a TECAN D300e Digital Dispenser. Plates were shaken for 2 minutes on a microplate shaker to mix compounds. Plates were centrifuged at 320×g for 1 min at room temperature, and subsequently incubated for 2 hours at 37° C.
After incubation, plates were allowed to cool to room temperature for 15 minutes. 20 μL of 3× Complete NanoBRET™ Nano-Glo® Substrate plus Inhibitor Solution (Promega, 1:166 Substrate and 1:500 dilution of Extracellular NanoLuc® Inhibitor diluted in Opti-MEM) were added to each well. Plates were incubated with shaking at room temperature for 3 minutes covered with foil. Plates were read on a CLARIOstar microplate reader (BMG LabTech), measuring at 450 nm (donor emission) and 610 nm (acceptor emission). The IC50 values were determined by regression to best fit four-parameter logistic curves using GraphPad Prism.

IKZF2 (Helios) [3] = biological target: T4, IKZF2 (Helios) (Homo sapiens, UniProt Q96SW2+Q9UKS7); assay: IKZF2 reporter degradation assay (HEK 293T IKZF2-mNeonGreen reporter cell line); assay type: cell-based; settings: HEK-293T, 24 h, @ 1 μM, HEK 293T IKZF2-mNeonGreen reporter, 24 hours incubation
T4 construct: Leu-Asp junction (codons ctcgac before the linker); mScarlet (behind P2A) (C, cleaved yes); expressed in transfected cells
T4 sequence (Q9UKS7 whole entry): as the sequence (Q9UKS7 whole entry) above
T4 sequence (Q96SW2 whole entry): as the sequence (Q96SW2 whole entry partner) above
T4 sequence (Q16531 whole entry partner): as the sequence (Q16531 whole entry partner) above
Source text: as §1, §2, §3, §4, §5

DC50 (IKZF3 (Aiolos)) | DC50 (IKZF2 (Helios) [1]) | EC50 [2] | inhibition at 1 µM (IKZF2 (Helios) [3]) | Compound
> 30 µM | > 30 µM | 0.005 µM | – | O=C1CCC(N2Cc3cc(O[C@@H]4CCCC[C@@H]4N4CC(c5ncc(Br)cn5)C4)ccc3C2=O)C(=O)N1 (mixture of isomers) [Compound 138-B, Rac-3-(5-(((cis)-2-(3-(5-bromopyrimidin-2-yl)azetidin-1-yl)cyclohexyl)oxy)-1-oxoisoindolin-2-yl)piperidine-2,6-dione]
> 30 µM | > 30 µM | 0.056 µM | – | O=C1CCC(N2Cc3cc(OC4CCCC4N4CC(c5cncc(C(F)(F)F)c5)C4)ccc3C2=O)C(=O)N1 (stereo not shown) [Compound 154-B, 3-(1-oxo-5-((2-(3-(5-(trifluoromethyl)pyridin-3-yl)azetidin-1-yl)cyclopentyl)oxy)isoindolin-2-yl)piperidine-2,6-dione]
> 30 µM | > 30 µM | 0.037 µM | – | O=C1CCC(N2Cc3cc(OC4CCCC4N4CC(c5ccc(C(F)(F)F)nc5)C4)ccc3C2=O)C(=O)N1 (stereo not shown) [Compound 141-B, 3-(1-oxo-5-((2-(3-(6-(trifluoromethyl)pyridin-3-yl)azetidin-1-yl)cyclopentyl)oxy)isoindolin-2-yl)piperidine-2,6-dione]
> 30 µM | > 30 µM | 0.01 µM | – | O=C1CCC(N2Cc3cc(O[C@H]4CCCC[C@H]4N4CC(c5ccc6ccccc6n5)C4)ccc3C2=O)C(=O)N1 (stereo partly drawn) [Compound 88-B, 3-(1-oxo-5-(((1S,2R)-2-(3-(quinolin-2-yl)azetidin-1-yl)cyclohexyl)oxy)isoindolin-2-yl)piperidine-2,6-dione]
– | > 30 µM | 0.011 µM | – | O=C1CCC(N2Cc3cc(O[C@H]4CCCC[C@H]4N4CC(c5ccc(Cl)cn5)C4)ccc3C2=O)C(=O)N1 (single isomer, unassigned) [Compound 97-B]
– | > 30 µM | 0.005 µM | – | O=C1CCC(N2Cc3cc(O[C@H]4CCCC[C@H]4N4CC(c5ncc(C(F)(F)F)cn5)C4)ccc3C2=O)C(=O)N1 (single isomer, unassigned) [Compound 121-B]

More lines, now with the values behind:

Compound | DC50 (IKZF3 (Aiolos)) | DC50 (IKZF2 (Helios) [1]) | EC50 [2] | inhibition at 1 µM (IKZF2 (Helios) [3])
N#Cc1cc(C2CN([C@H]3CCCC[C@@H]3Oc3ccc4c(c3)CN(C3CCC(=O)NC3=O)C4=O)C2)ccn1 (mixture of isomers) [Compound 180-B, Rac-4-(1-((trans)-2-((2-(2,6-dioxopiperidin-3-yl)-1-oxoisoindolin-5-yl)oxy)cyclohexyl)azetidin-3-yl)picolinonitrile] | > 30 µM | > 30 µM | 0.041 µM | –
O=C1CCC(N2Cc3cc(O[C@H]4CCCC[C@@H]4N4CC(c5ncncc5Cl)C4)ccc3C2=O)C(=O)N1 (mixture of isomers) [Compound 140-B, Rac-3-(5-(((trans)-2-(3-(5-chloropyrimidin-4-yl)azetidin-1-yl)cyclohexyl)oxy)-1-oxoisoindolin-2-yl)piperidine-2,6-dione] | > 30 µM | > 30 µM | 0.034 µM | –
O=C1CCC(N2Cc3cc(O[C@H]4CCCC[C@H]4N4CC(c5ccc(Cl)cn5)C4)ccc3C2=O)C(=O)N1 (single isomer, unassigned) [Compound 98-B] | – | 0.111 µM | 0.055 µM | 41.3%
O=C1CCC(N2Cc3cc(OC4CCCCC4N4CC(c5cncc(C(F)(F)F)c5)C4)ccc3C2=O)C(=O)N1 (stereo not shown) [Compound 178-B, 3-(1-oxo-5-((2-(3-(5-(trifluoromethyl)pyridin-3-yl)azetidin-1-yl)cyclohexyl)oxy)isoindolin-2-yl)piperidine-2,6-dione] | > 30 µM | > 30 µM | 0.039 µM | –
O=C1CCC(N2Cc3cc(O[C@H]4CCCC[C@H]4N4CC(c5cncc(Cl)c5)C4)ccc3C2=O)C(=O)N1 (single isomer, unassigned) [Compound 115-B] | – | 0.177 µM | 0.064 µM | 21.7%
O=C1CCC(N2Cc3cc(O[C@@H]4CCCC[C@H]4N4CC(c5ncc(C6CC6)cn5)C4)ccc3C2=O)C(=O)N1 (single isomer, unassigned) [Compound 132-B] | – | > 30 µM | 0.003 µM | –
O=C1NC(=O)C2(N3Cc4cc(OC5CCCC5N5CC(c6ccncc6)C5)ccc4C3=O)CC1C2 (stereo not shown) [Compound 148-B, 1-(1-oxo-5-((2-(3-(pyridin-4-yl)azetidin-1-yl)cyclopentyl)oxy)isoindolin-2-yl)-3-azabicyclo[3.1.1]heptane-2,4-dione] | > 30 µM | > 30 µM | > 10 µM | –
O=C1CCC(N2Cc3cc(O[C@@H]4CCCC[C@H]4N4CC(c5ncc(C6CC6)cn5)C4)ccc3C2=O)C(=O)N1 (single isomer, unassigned) [Compound 133-B] | – | > 30 µM | 0.01 µM | –
O=C1CCC(N2Cc3cc(O[C@H]4CCCC[C@@H]4N4CC(c5ccnc6[nH]ccc56)C4)ccc3C2=O)C(=O)N1 (single isomer, unassigned) [Compound 113-B] | – | 0.062 µM | 0.03 µM | 29.7%
O=C1CCC(N2Cc3cc(O[C@@H]4CCCC[C@H]4N4CC(c5ccc(C(F)(F)F)nc5)C4)ccc3C2=O)C(=O)N1 (single isomer, unassigned) [Compound 124-B] | > 30 µM | > 30 µM | 0.029 µM | –
O=C1CCC(N2Cc3cc(O[C@H]4CCCC[C@@H]4N4CC(c5ncc(Cl)cn5)C4)ccc3C2=O)C(=O)N1 (single isomer, unassigned) [Compound 110-B] | – | > 30 µM | 0.032 µM | –
O=C1CCC(N2Cc3cc(O[C@H]4CCCC[C@H]4N4CC(c5ccc(Cl)cn5)C4)ccc3C2=O)C(=O)N1 (mixture of isomers) [Compound 164-B, Rac-3-(5-(((cis)-2-(3-(5-chloropyridin-2-yl)azetidin-1-yl)cyclohexyl)oxy)-1-oxoisoindolin-2-yl)piperidine-2,6-dione] | > 30 µM | > 30 µM | 0.015 µM | –
